According to patent US12577255B2, “MDM2-based modulators of proteolysis and associated methods of use” (Arvinas Operations, Inc., priority 2015, dated 2026):

Tests used:
[1] = test system: c-Jun N-terminal kinases (JNK); assay: JNK Western blot assay (degradation); type: cell-based; settings: at 1 μM; 16 h
Procedure: (§1) The following biological assays were performed to evaluate the protein degradation in various cell types using representative compounds disclosed. The degradation of the following proteins were evaluated: bromodomain-containing protein 4 (BRD4), androgen receptor (AR), c-Myc, c-Jun N-terminal kinases (JNK), and enhancer of zeste homolog 2 (EZH2).
Cells were purchased from ATCC and cultured in Dulbecco's Modified Eagle's Medium (ATCC), supplemented with 10% FBS (ATCC) and Penicillin/Streptomycin (Life Technologies). […] Cells were harvested, and lysed in RIPA buffer (50 mM Tris pH8, 150 mM NaCl, 1% Tx-100, 0.1% SDS, 0.5% sodium deoxycholate) supplemented with protease and phosphatase inhibitors. Lysates were clarified at 16,000 g for 10 minutes, and protein concentration was determined. Equal amount of protein (20 μg) was subjected to SDS-PAGE analysis and followed by immunoblotting according to standard protocols.

[2] = target: T1, bromodomain-containing protein 4 (BRD4) (Homo sapiens, UniProt O60885); assay: BRD4 Western blot (degradation); type: cell-based; settings: at 1 μM; VCaP cells, 16 h
T1 construct: VCaP cells were chased from ATCC and cultured in Dulbecco's Modified Eagle's Medium; host or cells: VCaP
Procedure: as §1
VCaP cells were chased from ATCC and cultured in Dulbecco's Modified Eagle's Medium (ATCC), supplemented with 10% FBS (ATCC) and Penicillin/Streptomycin (Life Technologies). DMSO control and compound treatments (0.03 μM to 1 μM) were performed in 12-well plates for 16 h. cells were harvested, and lysed in RIPA buffer (50 mM Tris pH8, 150 mM NaCl, 1% Tx-100, 0.1% SDS, 0.5% sodium deoxycholate) supplemented with protease and phosphatase inhibitors. Lysates were clarified at 16,000 g for 10 minutes, and protein concentration was determined. Equal amount of protein (20 μg) was subjected to SDS-PAGE analysis and followed by immunoblotting according to standard protocols. The antibodies used were BRD4 (Cell signaling #13440), and Actin (Sigma #5441). Detection reagents were Clarity Western ELC substrate (Bio-rad #170-5060).

p53 = assay: Western blot of HCT116 cells, p53 level; type: cell-based, human; settings: Western blot (FIG. 2, FIG. 3)
MDM2 = target: T2, MDM2 (Homo sapiens, UniProt Q00987); assay: Western blot of HCT116 cells, MDM2 level; type: cell-based; settings: Western blot (FIG. 2, FIG. 3)
T2 construct: Western blot of HCT116 cells treated with chimeric molecules; endogenous in cells; host or cells: HCT116
T2 sequence (Q00987 whole entry): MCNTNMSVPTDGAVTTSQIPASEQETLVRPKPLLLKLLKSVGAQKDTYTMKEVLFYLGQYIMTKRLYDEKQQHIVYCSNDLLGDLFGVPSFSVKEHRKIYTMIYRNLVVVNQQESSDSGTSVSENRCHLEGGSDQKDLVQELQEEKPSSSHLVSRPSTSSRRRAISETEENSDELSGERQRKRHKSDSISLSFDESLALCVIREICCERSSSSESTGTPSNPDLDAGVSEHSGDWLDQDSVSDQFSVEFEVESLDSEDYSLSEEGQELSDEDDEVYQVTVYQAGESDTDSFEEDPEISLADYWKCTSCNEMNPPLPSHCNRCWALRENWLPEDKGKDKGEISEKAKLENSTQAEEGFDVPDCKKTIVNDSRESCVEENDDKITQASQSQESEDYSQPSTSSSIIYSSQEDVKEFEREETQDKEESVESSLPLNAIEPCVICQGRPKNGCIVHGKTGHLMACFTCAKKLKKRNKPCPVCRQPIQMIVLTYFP

Structure (SMILES) | Degradation activity JNK [1] | Degradation activity BRD4 [2] | p53 level increase (p53) | MDM2 up-regulation (MDM2)
COc1cc(C(=O)NCCOCCO[C@H]2CC[C@H](Nc3nccc(-c4cnn(Cc5ccccc5)c4N(C)C)n3)CC2)ccc1NC(=O)C1N[C@@H](CC(C)(C)C)[C@](C#N)(c2ccc(Cl)cc2F)[C@H]1c1cccc(Cl)c1F (stereo partly drawn) [Compound A2720, 3-(3-chloro-2-fluorophenyl)-4-(4-chloro-2-fluorophenyl)-4-cyano-5-(2,2-dimethylpropyl)-N-(2-methoxy-4-{[2-(2-{[(1,4-trans)-4-({4-[1-benzyl-5-(dimethylamino)-1H-pyrazol-4-yl]pyrimidin-2-yl}amino)cyclohexyl]oxy}ethoxy)ethyl]carbamoyl}phenyl)pyrrolidine-2-carboxamide] | A (0 to 25% degradation at 1 μM) | – | – | –
COc1ccc(C(=O)NCCOCCOCCO[C@H]2CC[C@H](Nc3nccc(-c4cnn(Cc5ccccc5)c4N(C)C)n3)CC2)cc1NC(=O)C1N[C@@H](CC(C)(C)C)[C@](C#N)(c2ccc(Cl)cc2F)[C@H]1c1cccc(Cl)c1F (stereo partly drawn) [Compound A2766, 3-(3-chloro-2-fluorophenyl)-4-(4-chloro-2-fluorophenyl)-4-cyano-5-(2,2-dimethylpropyl)-N-[2-methoxy-5-({2-[2-(2-{[(1,4-trans)-4-({4-[1-benzyl-5-(dimethylamino)-1H-pyrazol-4-yl]pyrimidin-2-yl}amino)cyclohexyl]oxy}ethoxy)ethoxy]ethyl}carbamoyl)phenyl]pyrrolidine-2-carboxamide] | A (0 to 25% degradation at 1 μM) | – | – | –
COc1ccc(C(=O)NCCOCCOCCOCCOCCO[C@H]2CC[C@H](Nc3nccc(-c4cnn(Cc5ccccc5)c4N(C)C)n3)CC2)cc1NC(=O)C1N[C@@H](CC(C)(C)C)[C@](C#N)(c2ccc(Cl)cc2F)[C@H]1c1cccc(Cl)c1F (stereo partly drawn) [Compound A2792, 3-(3-chloro-2-fluorophenyl)-4-(4-chloro-2-fluorophenyl)-4-cyano-5-(2,2-dimethylpropyl)-N-[2-methoxy-5-({1-[(1,4-trans)-4-({4-[1-benzyl-5-(dimethylamino)-1H-pyrazol-4-yl]pyrimidin-2-yl}amino)cyclohexyl]-1,4,7,10,13-pentaoxapentadecan-15-yl}carbamoyl)phenyl]pyrrolidine-2-carboxamide] | A (0 to 25% degradation at 1 μM) | – | – | –
COc1cc(C(=O)NCCOCCNC(=O)C[C@@H]2N=C(c3ccc(Cl)cc3)c3c(sc(C)c3C)-n3c(C)nnc32)ccc1NC(=O)[C@@H]1N[C@@H](CC(C)(C)C)[C@](C#N)(c2ccc(Cl)cc2F)[C@H]1c1cccc(Cl)c1F [Compound A1892, (2R,3S,4R,5S)-3-(3-chloro-2-fluorophenyl)-4-(4-chloro-2-fluorophenyl)-N-(4-{[2-(2-{2-[(9S)-7-(4-chlorophenyl)-4,5,13-trimethyl-3-thia-1,8,11,12-tetraazatricyclo[8.3.0.0^2,^6]-trideca-2(6),4,7,10,12-pentaen-9-yl]acetamido}ethoxy)ethyl]carbamoyl}-2-methoxyphenyl)-4-cyano-5-(2,2-dimethylpropyl)pyrrolidine-2-carboxamide] | – | C (larger than 50% degradation at 1 μM) | dose dependent p53 level increase | up-regulation of MDM2
COc1cc(C(=O)NCCOCCOCCNC(=O)C[C@@H]2N=C(c3ccc(Cl)cc3)c3c(sc(C)c3C)-n3c(C)nnc32)ccc1NC(=O)[C@@H]1N[C@@H](CC(C)(C)C)[C@](C#N)(c2ccc(Cl)cc2F)[C@H]1c1cccc(Cl)c1F [Compound A1864, (2R,3S,4R,5S)-3-(3-chloro-2-fluorophenyl)-4-(4-chloro-2-fluorophenyl)-N-[4-({2-[2-(2-{2-[(9S)-7-(4-chlorophenyl)-4,5,13-trimethyl-3-thia-1,8,11,12-tetraazatricyclo-[8.3.0.0^2,^6]trideca-2(6),4,7,10,12-pentaen-9-yl]acetamido}ethoxy)ethoxy]ethyl}-carbamoyl)-2-methoxyphenyl]-4-cyano-5-(2,2-dimethylpropyl)pyrrolidine-2-carboxamide] | – | B (25 to 50% degradation at 1 μM) | dose dependent p53 level increase | up-regulation of MDM2
